ChEMBL document CHEMBL3875162, “Synthesis and biological evaluation of new benzimidazole-thiazolidinedione hybrids as potential cytotoxic and apoptosis inducing agents” (Eur J Med Chem, 2016)
pIC50: −log10 of the molar value.

Tests used:
[1] = Cytotoxicity against human DU145 cells assessed as cell growth inhibition after 48 hrs by MTT assay; format: functional, cell-based; conditions: DU-145, 48 h
[2] = Cytotoxicity against human PC3 cells assessed as cell growth inhibition after 48 hrs by MTT assay; format: functional, cell-based; conditions: PC-3, 48 h
[3] = Cytotoxicity against human MDA-MB-231 cells assessed as cell growth inhibition after 48 hrs by MTT assay; format: functional, cell-based; conditions: MDA-MB-231, 48 h
[4] = Cytotoxicity against human A549 cells assessed as cell growth inhibition after 48 hrs by MTT assay; format: functional, cell-based; conditions: A549, 48 h
[5] = Cytotoxicity against human MCF10A cells assessed as cell growth inhibition after 48 hrs by MTT assay; format: toxicity, cell-based, MCF-10A
A549 = assay: Selectivity index, ratio of IC50 for human MCF10A cells to IC50 for human A549 cells; format: functional

CC(C)n1c(/C=C2\SC(=O)N(CC(=O)N3CCOCC3)C2=O)nc2ccccc21
pIC50 [1]: < 4.30
pIC50 [2]: < 4.30
pIC50 [3]: < 4.30
pIC50 [4]: < 4.30

CCn1c(/C=C2\SC(=O)N(CC(=O)Nc3nc(-c4ccccc4)cs3)C2=O)nc2ccccc21
pIC50 [1]: < 4.30
pIC50 [2]: < 4.30
pIC50 [3]: < 4.30
pIC50 [4]: < 4.30

CCn1c(/C=C2\SC(=O)N(CC(=O)N3CCCC3)C2=O)nc2ccccc21
pIC50 [1]: 4.35
pIC50 [2]: < 4.30
pIC50 [3]: < 4.30
pIC50 [4]: 4.51

CCn1c(/C=C2\SC(=O)N(CC(=O)N3CCCCC3)C2=O)nc2ccccc21
pIC50 [1]: < 4.30
pIC50 [2]: < 4.30
pIC50 [3]: < 4.30
pIC50 [4]: < 4.30

COc1cc2c(cc1OC)CN(C(=O)CN1C(=O)S/C(=C\c3nc4ccccc4n3C)C1=O)CC2
IC50 at 48 h [5]: > 100 µM
pIC50 [1]: 4.43
pIC50 [2]: 4.39
pIC50 [3]: 4.44
pIC50 [4]: 4.87

CCn1c(/C=C2\SC(=O)N(CC(=O)N3CCOCC3)C2=O)nc2ccccc21
pIC50 [1]: < 4.30
pIC50 [2]: < 4.30
pIC50 [3]: < 4.30
pIC50 [4]: < 4.30

CC(C)n1c(/C=C2\SC(=O)N(CC(=O)N3CCCCC3)C2=O)nc2ccccc21
pIC50 [1]: 4.37
pIC50 [2]: < 4.30
pIC50 [3]: < 4.30
pIC50 [4]: 4.55

Cn1c(/C=C2\SC(=O)N(CC(=O)N3CCOCC3)C2=O)nc2ccccc21
pIC50 [1]: 4.39
pIC50 [2]: < 4.30
pIC50 [3]: < 4.30
pIC50 [4]: 4.42

COc1cc2c(cc1OC)CN(C(=O)CN1C(=O)S/C(=C\c3nc4ccccc4n3C(C)C)C1=O)CC2
IC50 at 48 h [5]: > 100 µM
pIC50 [1]: 4.53
pIC50 [2]: < 4.30
pIC50 [3]: 4.51
pIC50 [4]: 4.69

CC1CN(C(=O)CN2C(=O)S/C(=C\c3nc4ccccc4n3C)C2=O)CC(C)O1 (centres undefined)
pIC50 [1]: < 4.30
pIC50 [2]: < 4.30
pIC50 [3]: < 4.30
pIC50 [4]: 4.53

CCn1c(/C=C2\SC(=O)N(CC(=O)N3CCc4cc(OC)c(OC)cc4C3)C2=O)nc2ccccc21
pIC50 [1]: < 4.30
pIC50 [2]: 4.47
pIC50 [3]: < 4.30
pIC50 [4]: 4.58

Cn1c(/C=C2\SC(=O)N(CC(=O)N3CCCC3)C2=O)nc2ccccc21
pIC50 [1]: < 4.30
pIC50 [2]: < 4.30
pIC50 [3]: < 4.30
pIC50 [4]: < 4.30

CC(C)n1c(/C=C2\SC(=O)N(CC(=O)Nc3cc(C(C)(C)C)on3)C2=O)nc2ccccc21
pIC50 [1]: < 4.30
pIC50 [2]: < 4.30
pIC50 [3]: < 4.30
pIC50 [4]: < 4.30

CC(C)n1c(/C=C2\SC(=O)N(CC(=O)N3CCCC3)C2=O)nc2ccccc21
pIC50 [1]: < 4.30
pIC50 [2]: < 4.30
pIC50 [3]: < 4.30
pIC50 [4]: < 4.30

CC1CN(C(=O)CN2C(=O)S/C(=C\c3nc4ccccc4n3C(C)C)C2=O)CC(C)O1 (centres undefined)
pIC50 [1]: < 4.30
pIC50 [2]: < 4.30
pIC50 [3]: < 4.30
pIC50 [4]: < 4.30

Cn1c(/C=C2\SC(=O)N(CC(=O)Nc3cc(C(C)(C)C)on3)C2=O)nc2ccccc21
IC50 at 48 h [5]: 38.7 µM
pIC50 [1]: 4.50
pIC50 [2]: < 4.30
pIC50 [3]: 4.47
Ratio IC50 (A549): 2.5
pIC50 [4]: 4.82

Cn1c(/C=C2\SC(=O)N(CC(=O)N3CCCCC3)C2=O)nc2ccccc21
pIC50 [1]: < 4.30
pIC50 [2]: < 4.30
pIC50 [3]: < 4.30
pIC50 [4]: < 4.30

CCn1c(/C=C2\SC(=O)N(CC(=O)N3CC(C)OC(C)C3)C2=O)nc2ccccc21 (centres undefined)
pIC50 [1]: < 4.30
pIC50 [2]: < 4.30
pIC50 [3]: < 4.30
pIC50 [4]: < 4.30

O=c1[nH]cc(F)c(=O)[nH]1 [FLUOROURACIL]
pIC50 [1]: 4.39
pIC50 [2]: 4.34
pIC50 [3]: 4.44
pIC50 [4]: 4.52

CCn1c(/C=C2\SC(=O)N(CC(=O)Nc3cc(C(C)(C)C)on3)C2=O)nc2ccccc21
pIC50 [1]: < 4.30
pIC50 [2]: < 4.30
pIC50 [3]: < 4.30
pIC50 [4]: 4.35
